Laboratory results as given in PubChem BioAssay AID2060610 (Molecular Pharmacology Branch, DTP, NCI, 2025).

Tested on: 616215-338-R-J1-PDC complex spheroids, viability % test/control
Experiment: Anticancer human tumor 616215-338-R-J1-PDC patient-derived colon adenocarcinoma cell line growth inhibition [CLK]
Details: for IC50: curve of first compound; for viability, T/C: stronger effect = lower value
Outline: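 Multi-cell-type spheroids combined patient-derived tumor cells with HUVEC endothelial cells and human mesenchymal stem cells. Paired agents were dosed in half-log steps down from about clinical Cmax, or from 10 microM where Cmax was unknown.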

[1] = second compound 0.0316 µM, first compound 0.0316 µM
[2] = second compound 0.0316 µM, first compound 0.1 µM
[3] = second compound 0.0316 µM, first compound 0.316 µM
[4] = second compound 0.0316 µM, first compound 1 µM
[5] = second compound 0.0316 µM, first compound 3.16 µM
[6] = second compound 0.0316 µM, first compound 10 µM
[7] = second compound 0.1 µM, first compound 0.0316 µM
[8] = second compound 0.1 µM, first compound 0.1 µM
[9] = second compound 0.1 µM, first compound 0.316 µM
[10] = second compound 0.1 µM, first compound 1 µM
[11] = second compound 0.1 µM, first compound 3.16 µM
[12] = second compound 0.1 µM, first compound 10 µM
[13] = second compound 0.316 µM, first compound 0.0316 µM
[14] = second compound 0.316 µM, first compound 0.1 µM
[15] = second compound 0.316 µM, first compound 0.316 µM
[16] = second compound 0.316 µM, first compound 1 µM
[17] = second compound 0.316 µM, first compound 3.16 µM
[18] = second compound 0.316 µM, first compound 10 µM
[19] = second compound 1 µM, first compound 0.0316 µM
[20] = second compound 1 µM, first compound 0.1 µM
[21] = second compound 1 µM, first compound 0.316 µM
[22] = second compound 1 µM, first compound 1 µM
[23] = second compound 1 µM, first compound 3.16 µM
[24] = second compound 1 µM, first compound 10 µM
[25] = second compound 3.16 µM, first compound 0.0316 µM
[26] = second compound 3.16 µM, first compound 0.1 µM
[27] = second compound 3.16 µM, first compound 0.316 µM
[28] = second compound 3.16 µM, first compound 1 µM
[29] = second compound 3.16 µM, first compound 3.16 µM
[30] = second compound 3.16 µM, first compound 10 µM
[31] = second compound 10 µM, first compound 0.0316 µM
[32] = second compound 10 µM, first compound 0.1 µM
[33] = second compound 10 µM, first compound 0.316 µM
[34] = second compound 10 µM, first compound 1 µM
[35] = second compound 10 µM, first compound 3.16 µM
[36] = second compound 10 µM, first compound 10 µM
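Note: spheroids exposed to agents for 7 days.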
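Throughout, for viability, T/C: 100% = DMSO vehicle wells.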

CC(CO)NC(=O)c1cc(-c2ccc(Cl)cc2)nn(-c2cnn(C)c2)c1=O (stereo unspecified) + CNC(=O)c1ccc(Nc2nc(OC3CCCC3)c3c(-c4ccc5nc(C)oc5c4)c[nH]c3n2)c(OC)c1
IC50 (second compound 0.0316 µM): > 10000 nM
IC50 (second compound 0.1 µM): 487 nM
IC50 (second compound 0.316 µM): < 31.6 nM
IC50 (second compound 1 µM): < 31.6 nM
IC50 (second compound 3.16 µM): < 31.6 nM
IC50 (second compound 10 µM): < 31.6 nM
viability, T/C [1]: 85.1%
viability, T/C [2]: 89%
viability, T/C [3]: 89.2%
viability, T/C [4]: 92.8%
viability, T/C [5]: 91.1%
viability, T/C [6]: 97.5%
viability, T/C [7]: 58.9%
viability, T/C [8]: 57.9%
viability, T/C [9]: 48.7%
viability, T/C [10]: 45.9%
viability, T/C [11]: 50.6%
viability, T/C [12]: 43.4%
viability, T/C [13]: 36.4%
viability, T/C [14]: 45.8%
viability, T/C [15]: 40.2%
viability, T/C [16]: 38.6%
viability, T/C [17]: 48%
viability, T/C [18]: 40.2%
viability, T/C [19]: 43.5%
viability, T/C [20]: 46%
viability, T/C [21]: 46.3%
viability, T/C [22]: 41.8%
viability, T/C [23]: 44.2%
viability, T/C [24]: 35.3%
viability, T/C [25]: 45%
viability, T/C [26]: 45.4%
viability, T/C [27]: 36.2%
viability, T/C [28]: 38.4%
viability, T/C [29]: 31.7%
viability, T/C [30]: 30.3%
viability, T/C [31]: 43.4%
viability, T/C [32]: 43.4%
viability, T/C [33]: 34.3%
viability, T/C [34]: 30.3%
viability, T/C [35]: 34.3%
viability, T/C [36]: 39.5%

Cn1ncnc1[C@H]1c2n[nH]c(=O)c3cc(F)cc(c23)N[C@@H]1c1ccc(F)cc1 + CNC(=O)c1ccc(Nc2nc(OC3CCCC3)c3c(-c4ccc5nc(C)oc5c4)c[nH]c3n2)c(OC)c1
IC50 (second compound 0.0316 µM): > 100 nM
IC50 (second compound 0.1 µM): < 0.316 nM
IC50 (second compound 0.316 µM): < 0.316 nM
IC50 (second compound 1 µM): < 0.316 nM
IC50 (second compound 3.16 µM): < 0.316 nM
IC50 (second compound 10 µM): < 0.316 nM
viability, T/C (second compound 0.0316 µM, first compound 0.000316 µM): 97.2%
viability, T/C (second compound 0.0316 µM, first compound 0.001 µM): 93.8%
viability, T/C (second compound 0.0316 µM, first compound 0.00316 µM): 102%
viability, T/C (second compound 0.0316 µM, first compound 0.01 µM): 102%
viability, T/C [1]: 101%
viability, T/C [2]: 108%
viability, T/C (second compound 0.1 µM, first compound 0.000316 µM): 46.1%
viability, T/C (second compound 0.1 µM, first compound 0.001 µM): 46.5%
viability, T/C (second compound 0.1 µM, first compound 0.00316 µM): 47.9%
viability, T/C (second compound 0.1 µM, first compound 0.01 µM): 54.5%
viability, T/C [7]: 59.8%
viability, T/C [8]: 49.6%
viability, T/C (second compound 0.316 µM, first compound 0.000316 µM): 46.7%
viability, T/C (second compound 0.316 µM, first compound 0.001 µM): 45.3%
viability, T/C (second compound 0.316 µM, first compound 0.00316 µM): 40.5%
viability, T/C (second compound 0.316 µM, first compound 0.01 µM): 45.1%
viability, T/C [13]: 37.7%
viability, T/C [14]: 51.3%
viability, T/C (second compound 1 µM, first compound 0.000316 µM): 39.2%
viability, T/C (second compound 1 µM, first compound 0.001 µM): 44.8%
viability, T/C (second compound 1 µM, first compound 0.00316 µM): 41.9%
viability, T/C (second compound 1 µM, first compound 0.01 µM): 48.1%
viability, T/C [19]: 44.3%
viability, T/C [20]: 56.3%
viability, T/C (second compound 3.16 µM, first compound 0.000316 µM): 42.2%
viability, T/C (second compound 3.16 µM, first compound 0.001 µM): 45.1%
viability, T/C (second compound 3.16 µM, first compound 0.00316 µM): 45.5%
viability, T/C (second compound 3.16 µM, first compound 0.01 µM): 42.9%
viability, T/C [25]: 52%
viability, T/C [26]: 50.9%
viability, T/C (second compound 10 µM, first compound 0.000316 µM): 38.8%
viability, T/C (second compound 10 µM, first compound 0.001 µM): 43.6%
viability, T/C (second compound 10 µM, first compound 0.00316 µM): 50.2%
viability, T/C (second compound 10 µM, first compound 0.01 µM): 50.1%
viability, T/C [31]: 54.9%
viability, T/C [32]: 47.2%

C=CC(=O)N1CCN(c2nc(=O)n(-c3c(C)ccnc3C(C)C)c3nc(-c4c(O)cccc4F)c(F)cc23)C(C)C1 (stereo unspecified) + CNC(=O)c1ccc(Nc2nc(OC3CCCC3)c3c(-c4ccc5nc(C)oc5c4)c[nH]c3n2)c(OC)c1
IC50 (second compound 0.0316 µM): > 10000 nM
IC50 (second compound 0.1 µM): > 10000 nM
IC50 (second compound 0.316 µM): < 31.6 nM
IC50 (second compound 1 µM): > 10000 nM
IC50 (second compound 3.16 µM): < 31.6 nM
IC50 (second compound 10 µM): < 31.6 nM
viability, T/C [1]: 89.8%
viability, T/C [2]: 94.6%
viability, T/C [3]: 92.8%
viability, T/C [4]: 93.2%
viability, T/C [5]: 94.6%
viability, T/C [6]: 95.1%
viability, T/C [7]: 53.8%
viability, T/C [8]: 67.8%
viability, T/C [9]: 60.8%
viability, T/C [10]: 64%
viability, T/C [11]: 55.1%
viability, T/C [12]: 56.4%
viability, T/C [13]: 49.7%
viability, T/C [14]: 44.8%
viability, T/C [15]: 46.9%
viability, T/C [16]: 49.8%
viability, T/C [17]: 53.1%
viability, T/C [18]: 49.2%
viability, T/C [19]: 58.5%
viability, T/C [20]: 49.1%
viability, T/C [21]: 50.4%
viability, T/C [22]: 48.9%
viability, T/C [23]: 54.6%
viability, T/C [24]: 54.6%
viability, T/C [25]: 43.2%
viability, T/C [26]: 45.2%
viability, T/C [27]: 40.1%
viability, T/C [28]: 49.1%
viability, T/C [29]: 59.3%
viability, T/C [30]: 52.6%
viability, T/C [31]: 43.5%
viability, T/C [32]: 41.3%
viability, T/C [33]: 46.3%
viability, T/C [34]: 56.6%
viability, T/C [35]: 53.6%
viability, T/C [36]: 54.8%
